Laboratory results: patent US20080139520A1, “Altering cholesterol and fat uptake by novel allosteric inhibitors of pancreatic phospholipase A2” (priority 2006, published 2008)
pKd: −log10 of the molar value. Several values for one entry are separate records, joined by “and”; a condition that tells them apart may be missing. Equal values may be shown once. Read-outs that look alike come from different tables or passages of the source. One block for each compound: values may come before it.

Experiments:
[1] = molecular target: T1, human pancreatic IB PLA2 (Homo sapiens, UniProt P04054); test: Rate-lowering of hydrolysis of DMPC + 0.05 mole fraction cholate vesicles by human pancreatic PLA2; type: biochemical; conditions: 0.03 mole fraction; DMPC + 0.05 mole fraction cholate
T1 construct: gift of Dr. Suren Tatulian (Orlando, Fla.)
T1 sequence (P04054 23-148): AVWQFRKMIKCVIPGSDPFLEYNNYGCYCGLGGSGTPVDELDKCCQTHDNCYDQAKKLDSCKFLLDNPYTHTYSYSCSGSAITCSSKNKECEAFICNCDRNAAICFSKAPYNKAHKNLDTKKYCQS
Description: (§1) Independent support for selective binding of the rate lowering compounds to a regulatory site on PLA2 comes from the rate-lowering effect of such compounds on the hydrolysis of DMPC vesicles containing 0.05 mole fraction cholate.
(§2) Scores of other compounds in guggul were not active.

[2] = molecular target: T2, pig pancreatic IB PLA2 (Sus scrofa, UniProt P00592); test: Rate-lowering of hydrolysis of DMPC + 0.05 mole fraction cholate vesicles by pig pancreatic PLA2; type: biochemical; conditions: for Relative Rate-lowering (%) Activity, pPLA2: 0.03 mole fraction, DMPC + 0.05 mole fraction cholate
T2 construct: made in house
T2 sequence (P00592 23-146): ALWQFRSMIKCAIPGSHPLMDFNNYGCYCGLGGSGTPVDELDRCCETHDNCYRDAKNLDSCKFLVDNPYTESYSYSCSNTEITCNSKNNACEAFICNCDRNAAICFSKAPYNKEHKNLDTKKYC
Description: as §1, §2

[3] = molecular target: T3, PLA2 (Sus scrofa, UniProt P00592); test: Quenching of RET signal from TMA-DPH bound to PLA2 by bile salts; type: binding, pig; conditions: 1 μM PLA2 and TMA-DPH, pH 8.0
T3 construct: made in house
T3 sequence (P00592 23-146): as above
Method: (§3) Fluorescence emission spectrum or time course of the intensity change from tryptophan or the resonance energy transfer probe TMA-DPH were measured in the ratio mode on SLM-Aminco AB2 in a 1 cm cuvette [31, 32] in 1.6 ml stirred buffer containing 1 or 2 μM PLA2 in 10 mM Tris, 5 mM CaCl2 and 20 mM NaCl at pH 8.0 and 24° C. The slit-widths were 4 nm with excitation at 280.

[4] = molecular target: T3, PLA2; test: Isothermal calorimetric titration of PLA2 with bile salt; type: binding, pig; conditions: ITC, 8.5 μM PLA2; read-out: KEB
Method: ITC titration of PLA2 with <1 mM (below the CMC) bile salt stock solution was carried out on the Microcal calorimeter (model VP-itc) with cell volume of 1.42 ml with stirring at 300 rpm. Successive injections were made every 5 min. Standard software was used for the peak integration. The heat change with the internal calibration associated with the dilution of the titrant in the […] was subtracted from the heat change obtained by the injection of the bile salt in the presence of 8.5 μM PLA2. The net heat change per injection in the presence of PLA2 was integrated to obtain the total heat change as a function of the total added amphiphile concentration.

[5] = molecular target: T4, WT (wild type) pig PLA2 (Sus scrofa, UniProt P00592); test: PLA2 catalyzed hydrolysis of sonicated DMPC vesicles with added bile salt (pH-stat); type: biochemical; conditions: DMPC vesicles, pancreatic PLA2
T4 construct: made in house
T4 sequence (P00592 23-146): as above
Method: Aqueous dispersion of phospholipid was sonicated in a bath type sonicator. Virtually transparent suspension was annealed for at least 4 hours at room temperature before use. Reaction progress for the PLA2 catalyzed hydrolysis of sonicated DMPC (1 mM) vesicles was measured by pH-stat titration (Radiometer) with 1 mM 2-aminopropanediol in 4 ml reaction buffer containing 5 mM CaCl2 for DMPC (or 0.5 mM for DMPM), 1 mM NaCl, […] atmosphere. Reaction was initiated by adding 0.1 μg enzyme in 1-10 μl solution. The pH stat method was also used for monitoring the rate of hydrolysis of DMPM (0.4 mM) vesicles in the presence of polymyxin [27-29], or of the mixed-micelles of POPC with bile salts in 1:2 ratio [13, 30].
Delay before the onset of the stationary phase of the PLA2 catalyzed reaction progress for the hydrolysis of zwitterionic phospholipids has been extensively characterized. […] The apparent rates in FIG. 3 were obtained from the initial slopes of such reaction progress during which <5% of the total substrate is hydrolyzed.
The CMC of the bile salts used in this study range between 0.8 to 5 mM.

[6] = molecular target: T5, PLA2 K10W/W3F (Sus scrofa, UniProt P00592, K32W/W25F); test: Bile salt binding by Trp emission, K10W/W3F PLA2; parameters: species or system pig; conditions: read-out: KEB
T5 construct: made in house
T5 sequence (P00592 23-146 W25F/K32W): as the sequence (P00592 23-146) above, with W3F, K10W counted along it
Method: as §3
(§4) As shown in [45], the binding of decylsulfate to the R site is accompanied by a modest increase in the emission intensity from Trp-3. […] As summarized in Table 2, the value of KEB depends on the position of Trp, although Hill coefficient remains 1. […] Note that KEB for the EB complex of ΔPLA2 is about 7-fold larger than that for PLA2.

[7] = molecular target: T6, PLA2 L2W/W3F (Sus scrofa, UniProt P00592, L24W/W25F); test: Bile salt binding by Trp emission, L2W/W3F PLA2; parameters: species or system pig; conditions: read-out: KEB
T6 construct: made in house
T6 sequence (P00592 23-146 L24W/W25F): as the sequence (P00592 23-146) above, with L2W, W3F counted along it
Method: as §3, §4

[8] = molecular target: T7, PLA2 K53W/W3F (Sus scrofa, UniProt P00592, R75W/W25F); test: Bile salt binding by Trp emission, K53W/W3F PLA2; parameters: species or system pig; conditions: read-out: KEB
T7 construct: made in house
T7 sequence (P00592 23-146 W25F/R75W): as the sequence (P00592 23-146) above, with W3F, R53W counted along it
Method: as §3, §4

[9] = molecular target: PLA2 K10M (Sus scrofa, UniProt P00592, K32M); test: Bile salt binding by Trp emission, K10M PLA2; parameters: species or system pig; conditions: read-out: KEB
Sequence of PLA2 K10M (P00592 whole entry K32M): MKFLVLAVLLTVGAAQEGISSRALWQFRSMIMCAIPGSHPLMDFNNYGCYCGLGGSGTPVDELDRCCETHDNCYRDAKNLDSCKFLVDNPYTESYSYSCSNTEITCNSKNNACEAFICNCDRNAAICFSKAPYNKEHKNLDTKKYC
Method: as §3, §4

[10] = molecular target: T8, PLA2 K56W/W3F (Sus scrofa, UniProt P00592, K78W/W25F); test: Bile salt binding by Trp emission, K56W/W3F PLA2; parameters: species or system pig; conditions: read-out: KEB
T8 construct: made in house
T8 sequence (P00592 23-146 W25F/K78W): as the sequence (P00592 23-146) above, with W3F, K56W counted along it
Method: as §3, §4

[11] = molecular target: T9, PLA2 R6W/W3F (Sus scrofa, UniProt P00592, R28W/W25F); test: Bile salt binding by Trp emission, R6W/W3F PLA2; parameters: species or system pig; conditions: read-out: KEB
T9 construct: made in house
T9 sequence (P00592 23-146 W25F/R28W): as the sequence (P00592 23-146) above, with W3F, R6W counted along it
Method: as §3, §4

[12] = molecular target: T10, PLA2 (3W)(WT) (Sus scrofa, UniProt P00592); test: Bile salt binding by Trp emission, (3W)(WT) PLA2; parameters: species or system pig; conditions: read-out: KEB
T10 construct: made in house
T10 sequence (P00592 23-146): as the sequence (P00592 23-146) above
Method: as §3, §4

[13] = molecular target: PLA2 R6M/K10M (Sus scrofa, UniProt P00592, K32M/R28M); test: Bile salt binding by Trp emission, R6M/K10M PLA2; parameters: species or system pig; conditions: read-out: KEB
Sequence of PLA2 R6M/K10M (P00592 23-146 R28M/K32M): as the sequence (P00592 23-146) above, with R6M, K10M counted along it
Method: as §3, §4

[14] = molecular target: T11, PLA2 L19W/W3F (Sus scrofa, UniProt P00592, L41W/W25F); test: Bile salt binding by Trp emission, L19W/W3F PLA2; parameters: species or system pig; conditions: read-out: KEB
T11 construct: made in house
T11 sequence (P00592 23-146 W25F/L41W): as the sequence (P00592 23-146) above, with W3F, L19W counted along it
Method: as §3, §4

[15] = molecular target: T12, PLA2 M20W/W3F (Sus scrofa, UniProt P00592, M42W/W25F); test: Bile salt binding by Trp emission, M20W/W3F PLA2; parameters: species or system pig; conditions: read-out: KEB
T12 construct: made in house
T12 sequence (P00592 23-146 W25F/M42W): as the sequence (P00592 23-146) above, with W3F, M20W counted along it
Method: as §3, §4

[16] = molecular target: T13, PLA2 K87W/W3F (Sus scrofa, UniProt P00592, K109W/W25F); test: Bile salt binding by Trp emission, K87W/W3F PLA2; parameters: species or system pig; conditions: read-out: KEB
T13 construct: made in house
T13 sequence (P00592 23-146 W25F/K109W): as the sequence (P00592 23-146) above, with W3F, K87W counted along it
Method: as §3, §4

[17] = molecular target: PLA2 R6M (Sus scrofa, UniProt P00592, R28M); test: Bile salt binding by Trp emission, R6M PLA2; parameters: species or system pig; conditions: read-out: KEB
Sequence of PLA2 R6M (P00592 23-146 R28M): as the sequence (P00592 23-146) above, with R6M counted along it
Method: as §3, §4

[18] = molecular target: T14, Wild-Type PLA2 (Sus scrofa, UniProt P00592); test: Decylsulfate binding to wild-type PLA2 (3W), Trp emission; parameters: species or system pig
T14 construct: made in house
T14 sequence (P00592 23-146): as the sequence (P00592 23-146) above
Method: as §3
(§5) For example, as summarized in Table 3, the main effect of the presence of bile salt is on the Trp-signal intensities rather than the dissociation constant for decylsulfate.

[19] = molecular target: T15, PLA2 W3F/R6W mutant (Sus scrofa, UniProt P00592, R28W/W25F); test: Decylsulfate binding to W3F/R6W mutant PLA2 (6W), Trp emission; parameters: species or system pig
T15 construct: made in house
T15 sequence (P00592 23-146 W25F/R28W): as the sequence (P00592 23-146) above, with W3F, R6W counted along it
Method: as §3, §5

Compound: CC=C1C(O)C[C@H]2[C@@H]3CCC4=CC(=O)CC[C@]4(C)[C@H]3CC[C@]12C (stereo partly drawn) [Gugguloster-3-one-16-ol]
Relative Rate-lowering (%) Activity, hPLA2 [1]: 56% | Relative Rate-lowering (%) Activity, pPLA2 [2]: 90%

Compound: C[C@H](CCC(=O)NCCS(=O)(=O)O)[C@H]1CC[C@H]2[C@@H]3[C@@H](O)C[C@@H]4C[C@H](O)CC[C@]4(C)[C@H]3CC[C@]12C [TUDOC, tauroursodeoxycholate]
efficacy to quench RET signal from TMA-DPH bound to PLA2 [3]: most effective | pKd [4]: > 5.70 | effect of bile salt on the rate of hydrolysis (monophasic/biphasic) [5]: biphasic effect

Compound: CC(=CCCC(C)C1CCC2(C)C3=CCC4C(C)(C)C(O)CCC4(C)C3CCC12C)C(=O)O (stereo not drawn) [Masticadienolic acid]
Relative Rate-lowering (%) Activity, hPLA2 [1]: 66% | Relative Rate-lowering (%) Activity, pPLA2 [2]: >95% | relative effectiveness in lowering the rate with pig pancreatic PLA2 ([2]; DMPC vesicles containing 0.05 mole fraction cholate, FIG. 6): effective by another factor of ten

Compound: CCCCCCCCCCOS(=O)(=O)O [Decylsulfate]
a1 decylsulfate binding ([18]; 3W + 0.2 mM TCDOC): −0.03 | a2 decylsulfate binding ([18]; 3W + 0.2 mM TCDOC): −0.07 | n2 decylsulfate binding ([18]; 3W + 0.2 mM TCDOC): 6 | pKd ([18]; 3W + 0.2 mM TCDOC, read-out: K2^# decylsulfate binding): 3.27 | a1 decylsulfate binding ([18]; 3W + Chol (0.2 mM cholate)): 0.10 | n1 decylsulfate binding ([18]; 3W + Chol (0.2 mM cholate)): 1.5 | pKd ([18]; 3W + Chol (0.2 mM cholate), read-out: K1^# decylsulfate binding): 4.30 | a1 decylsulfate binding ([18]; 3W, no additive): 0.26 | a2 decylsulfate binding ([18]; 3W, no additive): 0.56 | n1 decylsulfate binding ([18]; 3W, no additive): 1.8 and 1.7 | n2 decylsulfate binding ([18]; 3W, no additive): 8 | pKd ([18]; 3W, no additive, read-out: K1^# decylsulfate binding): 4.22 | pKd ([18]; 3W, no additive, read-out: K2^# decylsulfate binding): 3.19 | a1 decylsulfate binding ([19]; 6W): −0.07 | a2 decylsulfate binding ([19]; 6W): −0.36 | n1 decylsulfate binding ([19]; 6W): 2.7 | n2 decylsulfate binding ([19]; 6W): 2.5 | a1 decylsulfate binding ([19]; 6W + 0.2 mM TCDOC): −0.09 | a2 decylsulfate binding ([19]; 6W + 0.2 mM TCDOC): −1.1 | n2 decylsulfate binding ([19]; 6W + 0.2 mM TCDOC): 2.0 | pKd ([19]; 6W + 0.2 mM TCDOC, read-out: K2^# decylsulfate binding): 3.19 | pKd ([19]; 6W, read-out: K1^# decylsulfate binding): 4.30 | pKd ([19]; 6W, read-out: K2^# decylsulfate binding): 3.29

The next lines start with the values.

pKd [6]: 5.00 | pKd [7]: 4.70 | pKd [8]: 4.48 | pKd [9]: < 4.00 | pKd [10]: 4.46 | pKd [11]: 5.40 | pKd [12]: 4.52 | pKd [13]: 5.00 | pKd [14]: 4.36 | pKd [15]: 5.70 | pKd [16]: 5.70 | pKd [17]: < 4.00 | effect of bile salt on the rate of hydrolysis (monophasic/biphasic) [5]: biphasic effect
Compound: C[C@H](CCC(=O)NCCS(=O)(=O)O)[C@H]1CC[C@H]2[C@@H]3CC[C@@H]4C[C@H](O)CC[C@]4(C)[C@H]3C[C@H](O)[C@]12C [TDOC, taurodeoxycholate]

pKd [4]: 4.42 to 5.70 and 4.43
Compound: C[C@H](CCC(=O)O)[C@H]1CC[C@H]2[C@@H]3[C@@H](O)C[C@@H]4C[C@H](O)CC[C@]4(C)[C@H]3CC[C@]12C [UDOC, ursodeoxycholate]
